Paper PMC4685510, “A Cell Biologist’s Field Guide to Aurora Kinase Inhibitors” (Frontiers in Oncology, 2015)
“And” between values parts separate entries of the source, which are not always exact repeats. Identical values can stand only once. Like-named read-outs stand apart in the source and are kept apart here.

Columns and labels:
Experiment in all cases: biochemical
Type in all cases: biochemical
[1] = target: 363 human kinases (including Aurora A/B/C) (Homo sapiens, UniProt Q96RR4); details: CAMKK2, [ATP] 30 µM; for remaining activity at 0.1 µM: 100 nM; for remaining activity at 0.1 µM / remaining activity at 0.5 µM: read-out: % Enzyme Activity (relative to DMSO controls)
From the text: (§1) However, the Aurora A/B selectivity ratios derived from our in vitro and in vivo data can be compared to prioritize inhibitors.

[2] = target: 363 human kinases (including Aurora A/B/C) (Homo sapiens, UniProt Q9NYY3); details: PLK2; for remaining activity at 0.1 µM: 100 nM; for remaining activity at 0.1 µM / remaining activity at 0.5 µM: read-out: % Enzyme Activity (relative to DMSO controls)
From the text: as §1

[3] = target: 363 human kinases (including Aurora A/B/C) (Homo sapiens, UniProt P04626); details: ERBB2/HER2, [ATP] 20 µM; for remaining activity at 0.1 µM: 100 nM; for remaining activity at 0.1 µM / remaining activity at 0.5 µM: read-out: % Enzyme Activity (relative to DMSO controls)
From the text: as §1

[4] = target: T1, 363 human kinases (including Aurora A/B/C) (Homo sapiens, UniProt Q96PN8); details: TSSK3/STK22C; for remaining activity at 0.1 µM: 100 nM; for remaining activity at 0.1 µM / remaining activity at 0.5 µM: read-out: % Enzyme Activity (relative to DMSO controls)
T1 sequence (Q96PN8 1-268): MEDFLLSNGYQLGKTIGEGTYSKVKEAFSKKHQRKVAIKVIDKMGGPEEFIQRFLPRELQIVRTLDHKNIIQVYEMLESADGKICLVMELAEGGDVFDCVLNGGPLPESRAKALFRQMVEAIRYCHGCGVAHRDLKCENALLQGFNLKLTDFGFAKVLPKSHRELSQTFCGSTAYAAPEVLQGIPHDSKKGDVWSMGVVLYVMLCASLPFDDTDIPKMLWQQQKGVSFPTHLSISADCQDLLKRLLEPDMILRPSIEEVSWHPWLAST
From the text: as §1

[5] = target: T2, 363 human kinases (including Aurora A/B/C) (Homo sapiens, UniProt Q9UBE8); details: NLK; for remaining activity at 0.1 µM: 100 nM; for remaining activity at 0.1 µM / remaining activity at 0.5 µM: read-out: % Enzyme Activity (relative to DMSO controls)
T2 sequence (Q9UBE8 1-527): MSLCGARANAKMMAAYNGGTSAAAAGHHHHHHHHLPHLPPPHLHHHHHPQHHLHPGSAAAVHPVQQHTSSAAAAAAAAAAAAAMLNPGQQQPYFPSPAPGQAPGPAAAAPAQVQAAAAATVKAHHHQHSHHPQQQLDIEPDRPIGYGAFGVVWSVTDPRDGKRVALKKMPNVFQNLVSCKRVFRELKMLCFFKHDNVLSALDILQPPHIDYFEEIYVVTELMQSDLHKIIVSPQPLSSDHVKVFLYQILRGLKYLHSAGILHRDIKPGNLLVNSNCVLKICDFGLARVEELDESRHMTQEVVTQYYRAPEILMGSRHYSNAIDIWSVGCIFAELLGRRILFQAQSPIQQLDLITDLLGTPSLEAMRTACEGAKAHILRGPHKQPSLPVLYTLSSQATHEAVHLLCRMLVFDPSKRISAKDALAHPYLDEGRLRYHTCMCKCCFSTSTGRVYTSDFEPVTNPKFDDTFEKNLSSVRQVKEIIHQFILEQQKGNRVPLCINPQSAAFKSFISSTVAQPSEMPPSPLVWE
From the text: as §1

[6] = target: T3, 363 human kinases (including Aurora A/B/C) (Homo sapiens, UniProt O14757); details: CHK1, [ATP] 20 µM; for remaining activity at 0.1 µM: 100 nM; for remaining activity at 0.1 µM / remaining activity at 0.5 µM: read-out: % Enzyme Activity (relative to DMSO controls)
T3 sequence (O14757 1-476): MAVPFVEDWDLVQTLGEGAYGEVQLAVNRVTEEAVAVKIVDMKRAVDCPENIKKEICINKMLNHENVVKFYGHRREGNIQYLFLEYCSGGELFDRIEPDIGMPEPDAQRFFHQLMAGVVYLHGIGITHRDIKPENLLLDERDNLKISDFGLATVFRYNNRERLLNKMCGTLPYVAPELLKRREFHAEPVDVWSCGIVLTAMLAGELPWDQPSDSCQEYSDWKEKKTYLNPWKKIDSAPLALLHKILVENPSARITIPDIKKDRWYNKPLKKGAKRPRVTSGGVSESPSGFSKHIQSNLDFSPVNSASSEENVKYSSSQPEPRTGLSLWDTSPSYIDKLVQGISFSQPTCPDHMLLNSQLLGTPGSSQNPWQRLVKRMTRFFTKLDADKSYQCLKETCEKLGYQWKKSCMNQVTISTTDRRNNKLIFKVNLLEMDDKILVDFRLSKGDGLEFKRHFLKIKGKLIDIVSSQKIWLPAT
From the text: as §1

[7] = target: 363 human kinases (including Aurora A/B/C) (Homo sapiens, UniProt Q86Z02); details: HIPK1; for remaining activity at 0.1 µM: 100 nM; for remaining activity at 0.1 µM / remaining activity at 0.5 µM: read-out: % Enzyme Activity (relative to DMSO controls)
From the text: as §1

[8] = test system: 363 human kinases (including Aurora A/B/C)
From the text: as §1

[9] = target: 363 human kinases (including Aurora A/B/C) (Homo sapiens, UniProt P04629); details: TRKA; for remaining activity at 0.1 µM: 100 nM
From the text: as §1

[10] = target: 363 human kinases (including Aurora A/B/C) (Homo sapiens, UniProt P17252); details: PKCa; for remaining activity at 0.1 µM: 100 nM; for remaining activity at 0.1 µM / remaining activity at 0.5 µM: read-out: % Enzyme Activity (relative to DMSO controls)
From the text: as §1

[11] = target: 363 human kinases (including Aurora A/B/C) (Homo sapiens, UniProt Q9UPE1); details: MSSK1/STK23; for remaining activity at 0.1 µM: 100 nM; for remaining activity at 0.1 µM / remaining activity at 0.5 µM: read-out: % Enzyme Activity (relative to DMSO controls)
From the text: as §1

[12] = target: 363 human kinases (including Aurora A/B/C) (Homo sapiens, UniProt P43250); details: GRK6; for remaining activity at 0.1 µM: 100 nM; for remaining activity at 0.1 µM / remaining activity at 0.5 µM: read-out: % Enzyme Activity (relative to DMSO controls)
From the text: as §1

[13] = target: 363 human kinases (including Aurora A/B/C) (Homo sapiens, UniProt O75716); details: STK16; for remaining activity at 0.1 µM: 100 nM; for remaining activity at 0.1 µM / remaining activity at 0.5 µM: read-out: % Enzyme Activity (relative to DMSO controls)
From the text: as §1

[14] = target: 363 human kinases (including Aurora A/B/C) (Homo sapiens, UniProt Q00534); details: for remaining activity at 0.1 µM: 100 nM; for remaining activity at 0.1 µM / remaining activity at 0.5 µM: read-out: % Enzyme Activity (relative to DMSO controls); for % Enzyme Activity (relative to DMSO controls) / remaining activity at 0.5 µM: 500 nM
From the text: as §1

[15] = target: 363 human kinases (including Aurora A/B/C) (Homo sapiens, UniProt Q15746); details: MLCK/MYLK; for remaining activity at 0.1 µM: 100 nM; for remaining activity at 0.1 µM / remaining activity at 0.5 µM: read-out: % Enzyme Activity (relative to DMSO controls)
From the text: as §1

[16] = read-out: % Enzyme Activity (relative to DMSO controls)

Sequence of 363 human kinases (including Aurora A/B/C) (Homo sapiens, UniProt Q9UPE1) (Q9UPE1 whole entry): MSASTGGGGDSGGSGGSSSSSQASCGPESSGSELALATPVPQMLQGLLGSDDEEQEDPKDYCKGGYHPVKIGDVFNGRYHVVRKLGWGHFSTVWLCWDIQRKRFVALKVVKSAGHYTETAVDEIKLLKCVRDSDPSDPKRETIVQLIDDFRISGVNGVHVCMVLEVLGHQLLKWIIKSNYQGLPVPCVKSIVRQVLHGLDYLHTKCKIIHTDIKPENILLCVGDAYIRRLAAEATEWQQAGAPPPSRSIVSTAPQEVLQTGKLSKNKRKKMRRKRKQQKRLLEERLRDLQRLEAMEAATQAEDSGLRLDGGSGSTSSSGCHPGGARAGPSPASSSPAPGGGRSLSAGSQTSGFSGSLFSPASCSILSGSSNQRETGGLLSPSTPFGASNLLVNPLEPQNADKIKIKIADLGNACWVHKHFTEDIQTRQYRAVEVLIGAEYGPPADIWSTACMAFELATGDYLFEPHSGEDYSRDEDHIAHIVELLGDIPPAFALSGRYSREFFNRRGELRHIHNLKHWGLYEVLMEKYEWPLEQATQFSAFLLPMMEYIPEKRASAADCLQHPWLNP
Sequence of 363 human kinases (including Aurora A/B/C) (Homo sapiens, UniProt P04629) (P04629 33-796): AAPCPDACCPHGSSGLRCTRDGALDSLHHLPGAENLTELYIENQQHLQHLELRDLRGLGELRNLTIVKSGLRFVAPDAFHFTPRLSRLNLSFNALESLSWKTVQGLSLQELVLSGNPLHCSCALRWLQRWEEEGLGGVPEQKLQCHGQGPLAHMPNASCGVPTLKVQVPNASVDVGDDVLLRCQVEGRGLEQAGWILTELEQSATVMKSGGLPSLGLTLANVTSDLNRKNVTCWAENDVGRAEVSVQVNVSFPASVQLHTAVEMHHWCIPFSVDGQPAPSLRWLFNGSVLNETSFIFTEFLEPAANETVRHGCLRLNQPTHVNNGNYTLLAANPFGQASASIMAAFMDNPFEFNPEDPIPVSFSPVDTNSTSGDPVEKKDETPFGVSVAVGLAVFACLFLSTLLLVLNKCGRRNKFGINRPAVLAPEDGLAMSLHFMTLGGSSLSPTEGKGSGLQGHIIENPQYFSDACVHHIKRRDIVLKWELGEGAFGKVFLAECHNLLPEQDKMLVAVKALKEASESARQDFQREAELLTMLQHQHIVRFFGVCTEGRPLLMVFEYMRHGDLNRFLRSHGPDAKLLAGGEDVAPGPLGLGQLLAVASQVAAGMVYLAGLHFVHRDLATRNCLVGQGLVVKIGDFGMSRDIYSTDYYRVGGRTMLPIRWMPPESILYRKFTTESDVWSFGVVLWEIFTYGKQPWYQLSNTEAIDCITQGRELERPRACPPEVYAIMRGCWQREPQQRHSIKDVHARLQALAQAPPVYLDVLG
Sequence of 363 human kinases (including Aurora A/B/C) (Homo sapiens, UniProt Q15746) (Q15746 whole entry): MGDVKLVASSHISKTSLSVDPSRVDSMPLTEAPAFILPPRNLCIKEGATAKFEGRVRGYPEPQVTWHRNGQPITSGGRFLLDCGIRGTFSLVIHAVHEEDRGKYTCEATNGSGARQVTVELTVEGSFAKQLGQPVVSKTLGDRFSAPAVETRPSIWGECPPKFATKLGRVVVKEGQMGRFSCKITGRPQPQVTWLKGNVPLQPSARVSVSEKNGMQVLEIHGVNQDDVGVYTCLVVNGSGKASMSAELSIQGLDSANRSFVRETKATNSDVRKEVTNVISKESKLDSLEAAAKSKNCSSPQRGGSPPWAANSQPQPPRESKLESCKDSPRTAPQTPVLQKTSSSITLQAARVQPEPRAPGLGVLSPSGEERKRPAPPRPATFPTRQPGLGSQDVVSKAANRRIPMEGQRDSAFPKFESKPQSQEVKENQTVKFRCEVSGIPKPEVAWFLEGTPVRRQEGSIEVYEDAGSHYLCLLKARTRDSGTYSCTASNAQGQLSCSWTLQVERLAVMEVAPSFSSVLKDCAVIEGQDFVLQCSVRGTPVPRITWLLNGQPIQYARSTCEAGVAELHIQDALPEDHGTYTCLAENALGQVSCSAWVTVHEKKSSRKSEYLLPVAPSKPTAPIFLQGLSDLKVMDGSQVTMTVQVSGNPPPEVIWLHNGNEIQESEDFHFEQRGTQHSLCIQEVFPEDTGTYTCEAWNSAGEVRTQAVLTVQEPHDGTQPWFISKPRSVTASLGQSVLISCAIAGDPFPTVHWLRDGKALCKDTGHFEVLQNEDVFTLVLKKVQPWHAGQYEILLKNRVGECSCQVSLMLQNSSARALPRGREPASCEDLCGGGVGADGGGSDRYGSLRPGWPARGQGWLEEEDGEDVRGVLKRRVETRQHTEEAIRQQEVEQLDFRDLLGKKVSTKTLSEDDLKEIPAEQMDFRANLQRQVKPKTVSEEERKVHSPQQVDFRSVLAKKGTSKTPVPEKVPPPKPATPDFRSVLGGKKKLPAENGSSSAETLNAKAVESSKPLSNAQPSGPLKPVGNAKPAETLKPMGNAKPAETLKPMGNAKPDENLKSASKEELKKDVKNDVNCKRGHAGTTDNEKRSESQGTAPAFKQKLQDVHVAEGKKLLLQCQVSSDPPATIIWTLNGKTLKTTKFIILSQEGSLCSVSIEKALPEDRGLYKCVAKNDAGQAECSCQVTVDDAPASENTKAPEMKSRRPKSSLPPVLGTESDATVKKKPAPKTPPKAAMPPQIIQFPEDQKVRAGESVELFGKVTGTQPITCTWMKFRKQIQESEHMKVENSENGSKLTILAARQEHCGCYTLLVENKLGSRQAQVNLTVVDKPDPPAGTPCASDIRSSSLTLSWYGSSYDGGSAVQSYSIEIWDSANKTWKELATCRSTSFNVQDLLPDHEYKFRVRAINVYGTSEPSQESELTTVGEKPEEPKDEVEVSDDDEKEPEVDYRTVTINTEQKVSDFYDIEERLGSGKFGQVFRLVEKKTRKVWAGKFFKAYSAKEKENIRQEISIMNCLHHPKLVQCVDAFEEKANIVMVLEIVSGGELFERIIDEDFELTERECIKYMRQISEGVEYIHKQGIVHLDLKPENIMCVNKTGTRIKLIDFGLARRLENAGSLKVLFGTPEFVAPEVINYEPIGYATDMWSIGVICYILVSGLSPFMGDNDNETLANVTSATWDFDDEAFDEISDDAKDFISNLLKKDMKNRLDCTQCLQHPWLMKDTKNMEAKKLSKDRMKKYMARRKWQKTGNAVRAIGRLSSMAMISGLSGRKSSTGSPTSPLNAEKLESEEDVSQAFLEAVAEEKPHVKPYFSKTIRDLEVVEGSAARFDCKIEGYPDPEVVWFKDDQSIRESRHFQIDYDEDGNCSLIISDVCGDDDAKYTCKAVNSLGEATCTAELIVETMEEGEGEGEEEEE
Sequence of 363 human kinases (including Aurora A/B/C) (Homo sapiens, UniProt P43250) (P43250 whole entry): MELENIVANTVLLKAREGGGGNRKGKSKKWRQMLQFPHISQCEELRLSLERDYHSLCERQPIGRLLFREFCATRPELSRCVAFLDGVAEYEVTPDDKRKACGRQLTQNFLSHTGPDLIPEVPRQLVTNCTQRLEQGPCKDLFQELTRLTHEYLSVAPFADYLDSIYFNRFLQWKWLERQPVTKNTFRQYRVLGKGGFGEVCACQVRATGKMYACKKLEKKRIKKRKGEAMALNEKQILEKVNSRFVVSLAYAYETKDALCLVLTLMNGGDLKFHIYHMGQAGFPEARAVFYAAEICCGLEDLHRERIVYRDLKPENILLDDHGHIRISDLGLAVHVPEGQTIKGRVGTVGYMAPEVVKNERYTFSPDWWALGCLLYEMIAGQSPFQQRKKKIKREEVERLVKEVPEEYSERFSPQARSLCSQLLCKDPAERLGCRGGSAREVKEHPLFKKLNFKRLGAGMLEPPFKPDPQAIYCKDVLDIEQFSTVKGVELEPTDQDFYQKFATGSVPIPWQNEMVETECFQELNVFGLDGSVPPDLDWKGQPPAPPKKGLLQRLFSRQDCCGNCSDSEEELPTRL
Sequence of 363 human kinases (including Aurora A/B/C) (Homo sapiens, UniProt Q00534) (Q00534 whole entry): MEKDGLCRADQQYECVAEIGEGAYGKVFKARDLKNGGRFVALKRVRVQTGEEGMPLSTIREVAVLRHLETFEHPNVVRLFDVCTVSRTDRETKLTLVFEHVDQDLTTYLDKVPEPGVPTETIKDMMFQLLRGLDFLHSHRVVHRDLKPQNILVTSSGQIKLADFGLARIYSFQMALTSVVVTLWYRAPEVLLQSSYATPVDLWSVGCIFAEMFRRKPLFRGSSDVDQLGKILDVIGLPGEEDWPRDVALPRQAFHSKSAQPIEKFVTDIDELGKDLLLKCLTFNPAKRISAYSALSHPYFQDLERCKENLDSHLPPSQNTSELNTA

## CCn1cc(-c2ccnc3[nH]c(-c4cccc(CN(C)C)c4)cc23)c(-c2ccc(NC(=O)N(C)C)cc2)n1 [GSK1070916]
[1]
  remaining activity at 0.1 µM: 76.9%
[2]
  remaining activity at 0.1 µM: 91.2%
[3]
  remaining activity at 0.1 µM: 103%
[4]
  remaining activity at 0.1 µM: 83%
[5]
  remaining activity at 0.1 µM: 95.7%
[6]
  remaining activity at 0.1 µM: 98.7%
[7]
  remaining activity at 0.1 µM: 99.2%
[8]; 100 nM, 363 human kinases, [ATP] ~ Km(ATP)
  Kinases inhibited ≥65% of control: Aurora A and B as well as DDR1
[9]; [16]
  remaining activity at 0.1 µM: 87.7%
[10]
  remaining activity at 0.1 µM: 99.6%
[11]
  remaining activity at 0.1 µM: 95.5%
[12]
  remaining activity at 0.1 µM: 106%
[13]
  remaining activity at 0.1 µM: 107%
[14]; CDK6/cyclin D1, [ATP] 20 µM
  remaining activity at 0.1 µM: 98.8%
[14]; CDK6/cyclin D3, [ATP] 30 µM
  remaining activity at 0.1 µM: 102%
[15]
  remaining activity at 0.1 µM: 96.9%

## O=C(c1cccc(Cl)c1F)N1CCN(Cc2cccc(Nc3nccs3)n2)CC1 [MK-8745]
[1]; 500 nM
  % Enzyme Activity (relative to DMSO controls): 199.08%
  remaining activity at 0.5 µM: 204%
[2]; 500 nM
  % Enzyme Activity (relative to DMSO controls): 81.10%
  remaining activity at 0.5 µM: 81.9%
[3]; 500 nM
  % Enzyme Activity (relative to DMSO controls): 99.40%
  remaining activity at 0.5 µM: 99.8%
[4]; 500 nM
  % Enzyme Activity (relative to DMSO controls): 94.05%
  remaining activity at 0.5 µM: 95.9%
[5]; 500 nM
  % Enzyme Activity (relative to DMSO controls): 97.25%
  remaining activity at 0.5 µM: 98.5%
[6]; 500 nM
  % Enzyme Activity (relative to DMSO controls): 104.15%
  remaining activity at 0.5 µM: 105%
[7]; 500 nM
  % Enzyme Activity (relative to DMSO controls): 90.76%
  remaining activity at 0.5 µM: 90.8%
[8]; 500 nM
  Kinases inhibited at >65% of control: Aurora A, AXL, BRK, DDR1, EphA6, GSK3α/β, IRAK1, JNK1, LKB1, ROS1, Trk A/B/C, TYRO3, YES
  Number of kinases inhibited at >65% of control: 16 kinases
[8]; LYN B, 500 nM
  % Enzyme Activity (relative to DMSO controls): 85.04% and 84.52%
[8]; PKCb2, 500 nM
  % Enzyme Activity (relative to DMSO controls): 98.11% and 97.15%
[8]; PKG1b, 500 nM
  % Enzyme Activity (relative to DMSO controls): 109.42% and 102.59%
[9]; 500 nM
  % Enzyme Activity (relative to DMSO controls): 32.47%
[9]; 500 nM, read-out: % Enzyme Activity (relative to DMSO controls)
  remaining activity at 0.5 µM: 34.6%
[10]; 500 nM
  % Enzyme Activity (relative to DMSO controls): 92.64%
  remaining activity at 0.5 µM: 95.4%
[11]; 500 nM
  % Enzyme Activity (relative to DMSO controls): 93.46%
  remaining activity at 0.5 µM: 93.6%
[12]; 500 nM
  % Enzyme Activity (relative to DMSO controls): 98.74%
  remaining activity at 0.5 µM: 100%
[13]; 500 nM
  % Enzyme Activity (relative to DMSO controls): 70.34%
  remaining activity at 0.5 µM: 71.1%
[14]; CDK6/cyclin D1, [ATP] 20 µM
  % Enzyme Activity (relative to DMSO controls): 94.81%
  remaining activity at 0.5 µM: 96.4%
[14]; CDK6/cyclin D3, [ATP] 30 µM
  % Enzyme Activity (relative to DMSO controls): 93.71%
  remaining activity at 0.5 µM: 95.7%
[15]; 500 nM
  % Enzyme Activity (relative to DMSO controls): 89.65%
  remaining activity at 0.5 µM: 90.7%

## O=C(O)[C@]1(Cc2cccc(Nc3nccs3)n2)CC[C@@H](Oc2cccc(Cl)c2F)CC1 [MK-5108]
[1]
  remaining activity at 0.1 µM: 111%
[1]; 500 nM
  remaining activity at 0.5 µM: 87.7%
[2]
  remaining activity at 0.1 µM: 88.8%
[2]; 500 nM
  remaining activity at 0.5 µM: 85.1%
[3]
  remaining activity at 0.1 µM: 100%
[3]; 500 nM
  remaining activity at 0.5 µM: 111%
[4]
  remaining activity at 0.1 µM: 101%
[4]; 500 nM
  remaining activity at 0.5 µM: 91.3%
[5]
  remaining activity at 0.1 µM: 100%
[5]; 500 nM
  remaining activity at 0.5 µM: 94.5%
[6]
  remaining activity at 0.1 µM: 103%
[6]; 500 nM
  remaining activity at 0.5 µM: 148%
[7]
  remaining activity at 0.1 µM: 96.7%
[7]; 500 nM
  remaining activity at 0.5 µM: 67.8%
[8]
  Number of kinases inhibited at >65% of control: 75 kinases
  Number of kinases inhibited at >65% of control (including the Aurora kinases): 32 kinases
[9]; [16]
  remaining activity at 0.1 µM: 8.42%
[10]
  remaining activity at 0.1 µM: 69.8%
[10]; 500 nM
  remaining activity at 0.5 µM: 33.2%
[11]
  remaining activity at 0.1 µM: 99%
[11]; 500 nM
  remaining activity at 0.5 µM: 85%
[12]
  remaining activity at 0.1 µM: 104%
[12]; 500 nM
  remaining activity at 0.5 µM: 101%
[13]
  remaining activity at 0.1 µM: 70.7%
[13]; 500 nM
  remaining activity at 0.5 µM: 15.2%
[14]; CDK6/cyclin D1, [ATP] 20 µM
  remaining activity at 0.1 µM: 90.3%
  remaining activity at 0.5 µM: 96.2%
[14]; CDK6/cyclin D3, [ATP] 30 µM
  remaining activity at 0.1 µM: 89.7%
  remaining activity at 0.5 µM: 95.1%
[15]
  remaining activity at 0.1 µM: 89.1%
[15]; 500 nM
  remaining activity at 0.5 µM: 73.5%
